Results reported in ChEMBL document CHEMBL1152086, “Synthesis and in vitro anti-HIV and antitumor activity of new 2-chloroethyl thiocarbamates” (1995).
Active and inactive are the calls of the source. The rule behind the calls is not given here.

Tests used:
NCI [1] = test: In vitro anticancer activity against 8 NCI CNS cancer cell lines; inactive; assay type: functional, cell-based
NCI [2] = test: In vitro anticancer activity against 9 NCI renal cancer cell lines; inactive; assay type: functional, cell-based
SR = test: In vitro anticancer activity against SR leukemia cell line; assay type: functional; conditions: Homo sapiens
MOLT-4 = test: In vitro anticancer activity against MOLT-4 leukemia cell line; assay type: functional; conditions: Homo sapiens
[3] = In vitro anticancer activity against 9 NCI melanoma cell lines; inactive; assay type: functional
CCRF-CEM [4] = test: In vitro anticancer activity against CCRF-CEM leukemia cell line.(Maximum Concentration); assay type: functional; conditions: Homo sapiens
RPMI-8226 = test: In vitro anticancer activity against RPMI-8226 leukemia cell line; assay type: functional; conditions: Homo sapiens
K562 = test: In vitro anticancer activity against K-562 leukemia cell line; assay type: functional; conditions: Homo sapiens
NCI [5] = test: In vitro anticancer activity against 6 NCI ovarian cancer cell lines; inactive; assay type: functional, cell-based
HL-60 = test: In vitro anticancer activity against HL-60(TB) leukemia cell line; assay type: functional; conditions: Homo sapiens
NSCLC = test: In vitro anticancer activity against 11 NCI NSCLC cell lines; inactive; assay type: functional, cell-based
Cancer cell lines = test: In vitro anticancer activity against 9 NCI colon cancer cell lines; inactive; assay type: functional, cell-based
SCLC = test: In vitro anticancer activity against 2 NCI SCLC cell lines; inactive; assay type: functional, cell-based
CCRF-CEM [6] = test: In vitro anticancer activity against CCRF-CEM leukemia cell line; assay type: functional; conditions: Homo sapiens

| Compound | Activity (NCI [1]) | Activity (NCI [2]) | GI50 (SR) | GI50 (MOLT-4) | Activity [3] | GI50 (CCRF-CEM [4]) | GI50 (RPMI-8226) | GI50 (K562) | Activity (NCI [5]) | GI50 (HL-60) | Activity (NSCLC) | Activity (Cancer cell lines) | Activity (SCLC) | GI50 (CCRF-CEM [6]) |
| --- | --- | --- | --- | --- | --- | --- | --- | --- | --- | --- | --- | --- | --- | --- |
| O=C(NCCCl)SCCO | inactive | inactive | > 100 µM | > 100 µM | inactive | > 100 µM | > 100 µM | > 100 µM | inactive | > 100 µM | inactive | inactive | inactive | – |
| O=C(NCCCl)Sc1ccccc1 | inactive | inactive | – | – | inactive | – | – | – | inactive | – | inactive | inactive | inactive | – |
| CCOC(=O)CSC(=O)NCCCl | inactive | inactive | > 100 µM | > 100 µM | inactive | – | > 100 µM | 29 µM | inactive | 22.3 µM | inactive | inactive | inactive | 7.22 µM |
